{"source": "patent US5196424A", "about": "“N-[2-amino-4-substituted[[(pyrrollo or pyrido)[2,3-d]pyrimidinyl]-alkyl]benzoyl]-L-glutamic acids” (priority 1992, dated 1993)", "key": {"CCRF-CEM cells": {"tested_on": "CCRF-CEM cells", "assay": "Growth inhibition of CCRF-CEM human leukemia cells, 72 h, Coulter counter (Table I)", "type": "cell-based", "settings": "read-out: IC50, concentration required for 50% inhibition of growth", "description": "Cluster plates were prepared in duplicate with the compound at various concentrations ranging from 100 μg/ml to 0.005 μg/ml. Test compounds were dissolved initially in DMSO and further diluted with solvent to the desired concentration."}, "[1]": {"biological_target": "T1, human dihydrofolate reductase (DHFR) (Homo sapiens, UniProt P00374)", "T1 construct": "was obtained from human leukemic lymphoblasts (WI-L2/M4 cells); endogenous in cells; host or cells: WI-L2/M4 human leukemic lymphoblasts; enzyme purified from the cells according to Delcamp et al., Biochemistry 22, 633-639 (1983)", "T1 sequence (P00374 1-187)": "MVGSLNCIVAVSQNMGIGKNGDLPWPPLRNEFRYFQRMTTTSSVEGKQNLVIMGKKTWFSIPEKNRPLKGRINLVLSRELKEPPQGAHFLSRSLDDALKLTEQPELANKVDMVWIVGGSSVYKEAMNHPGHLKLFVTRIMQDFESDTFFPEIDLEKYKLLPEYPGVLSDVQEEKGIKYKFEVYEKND", "assay": "Inhibition of isolated human dihydrofolate reductase (Table III)", "type": "biochemical", "settings": "DHFR (5 × 10^-8 M); read-out: DHFR IC50, concentration required for 50% inhibition of enzyme activity"}, "6C3HED lymphosarcoma": {"tested_on": "6C3HED lymphosarcoma", "assay": "In vivo test against transplanted 6C3HED (Gardner) lymphosarcoma in C3H mice (Table II)", "description": "The compounds were tested in C3H mice bearing a 6C3HED lymphosarcoma, also known as the Gardner lymphosarcoma (GLS). The 6C3HED lymphosarcoma was obtained from the Division of Cancer Treatment, National Cancer Institute, Tumor Bank, maintained at E. G. and G. Mason Research (Worcester, Massachusetts). First passage tumor was stored in liquid nitrogen using standard techniques. The transplanted tumor was reestablished from the Tumor Bank every six months or as needed. The tumor was maintained by serial passage twice weekly in C3H mice.\nIn the procedure, the tumor was removed from passage animals and minced into 1- to 3-mm square fragments using sterile techniques. Tumor pieces were checked for sterility using both Antibiotic Medium 1 and Brain Heart Infusion (Difco, Detroit, Mich.). Recipient mice were shaved and tumor pieces were implanted subcutaneiously in the auxiliary region by trocar. Drug therapy on the appropriate schedule was initiated on the day after tumor implant. The compound being tested was mixed with 2.5 weight % of a polyoxyethylated oil known as \"Emulphor EL 620\" surfactant from GAF Chemicals Corporation (1:40 dilution of Empulphor in saline). All animals were weighed at the beginning and end of administration of the subject compounds. Food and water were provided ad libitum. The drug was administered in 0.5 ml of 2.5% Emulphor. Unless otherwise indicated, the compound was administered once per day for eight days. The tumor was measured the day after treatment ended with two dimensional measurements (width and length) of the tumor taken using digital electronic calipers interfaced to a microcomputer, J. F. Worzalla, et al., Investigational New Drugs, 8, 241-251 (1990). Tumor weights were calculated from these measurements using the following formula:\n(tumor weight in mg)=width in mm)^2 ×(length in mm)/2\nAt least one control group of an equal number of mice was treated with the same volume of 2.5% Emulphor only."}, "[2]": {"tested_on": "C3H Mammary Adenocarcinoma", "settings": "Days 1,3,5,7,9"}, "dihydrofolic reducatase": {"tested_on": "dihydrofolic reducatase", "settings": "background statement; cited from earlier work"}, "[3]": {"settings": "CCRF-CEM cells, 72 h incubation"}}, "note": "Where two headings read alike, the source gives them in different places."}
{"smiles": "Nc1nc(Cl)c2c(CCc3ccc(C(=O)N[C@@H](CCC(=O)O)C(=O)O)cc3)c[nH]c2n1", "note": "[Example 1, N-[2-amino-4-chloro-[[pyrrolo[2,3-d]-pyrimidin-5-yl]-ethyl]benzoyl]-L-glutamic acid]", "values": [{"measurement": "IC50", "setting": "CCRF-CEM cells; [3]", "value": "> 20", "unit": "µg/mL"}]}
{"smiles": "Nc1nc(S)c2c(CCc3ccc(C(=O)N[C@@H](CCC(=O)O)C(=O)O)cc3)c[nH]c2n1", "note": "[Example 2, N-[2-amino-4-mercapto[[pyrrolo[2,3-d]-pyrimidin-5-yl]-ethyl]benzoyl]-L-glutamic acid]", "values": [{"measurement": "IC50", "setting": "CCRF-CEM cells; [3]", "value": 0.032, "unit": "µg/mL"}]}
{"smiles": "Nc1ncc2c(CCc3ccc(C(=O)N[C@@H](CCC(=O)O)C(=O)O)cc3)c[nH]c2n1", "note": "[Example 3, N-[2-amino-[[pyrrolo[2,3-d]-pyrimidin-5-yl]-ethyl]benzoyl]-L-glutamic acid]", "values": [{"measurement": "IC50", "setting": "CCRF-CEM cells; [3]", "value": 0.019, "unit": "µg/mL"}]}
{"smiles": "Nc1ncc2c(n1)NCC2CCc1ccc(C(=O)N[C@@H](CCC(=O)O)C(=O)O)cc1", "note": "(stereo partly drawn) [Example 4, N-[2-amino-[di-hydropyrrolo[2,3-d]pyrimidin-5-yl]-ethyl]benzoyl-L-glutamicacid]", "values": [{"measurement": "IC50", "setting": "CCRF-CEM cells; [3]", "value": 0.005, "unit": "µg/mL"}, {"measurement": "IC50", "setting": "[1]", "value": 96, "unit": "nM"}, {"measurement": "% INH (percent inhibition of tumor)", "setting": "6C3HED lymphosarcoma; 0.25 mg/kg, Dailyx8", "value": 0, "unit": "%"}, {"measurement": "Toxic/Total", "setting": "6C3HED lymphosarcoma; 0.25 mg/kg, Dailyx8", "value": "0/10"}, {"measurement": "% INH (percent inhibition of tumor)", "setting": "6C3HED lymphosarcoma; 0.50 mg/kg, Dailyx8", "value": 1, "unit": "%"}, {"measurement": "Toxic/Total", "setting": "6C3HED lymphosarcoma; 0.50 mg/kg, Dailyx8", "value": "0/10"}, {"measurement": "Toxic/Total", "setting": "6C3HED lymphosarcoma; 1.00 mg/kg, Dailyx8", "value": "0/10"}, {"measurement": "% INH (percent inhibition of tumor)", "setting": "6C3HED lymphosarcoma; 2.00 mg/kg, Dailyx8", "value": 97, "unit": "%"}, {"measurement": "Toxic/Total", "setting": "6C3HED lymphosarcoma; 2.00 mg/kg, Dailyx8", "value": "0/10"}, {"measurement": "% INH (percent inhibition of tumor)", "setting": "6C3HED lymphosarcoma; 2 mg/kg, Days 1,3,5,7", "value": 49, "unit": "%"}, {"measurement": "Toxic/Total", "setting": "6C3HED lymphosarcoma; 2 mg/kg, Days 1,3,5,7", "value": "0/10"}, {"measurement": "% INH (percent inhibition of tumor)", "setting": "6C3HED lymphosarcoma; 4.00 mg/kg, Dailyx8", "value": 100, "unit": "%"}, {"measurement": "Toxic/Total", "setting": "6C3HED lymphosarcoma; 4.00 mg/kg, Dailyx8", "value": "1/10"}, {"measurement": "% INH (percent inhibition of tumor)", "setting": "6C3HED lymphosarcoma; 4 mg/kg, Days 1,3,5,7", "value": 99, "unit": "%"}, {"measurement": "Toxic/Total", "setting": "6C3HED lymphosarcoma; 4 mg/kg, Days 1,3,5,7", "value": "0/10"}, {"measurement": "% INH (percent inhibition of tumor)", "setting": "6C3HED lymphosarcoma; 6.25 mg/kg, Dailyx8", "value": 100, "unit": "%"}, {"measurement": "Toxic/Total", "setting": "6C3HED lymphosarcoma; 6.25 mg/kg, Dailyx8", "value": "6/10"}, {"measurement": "Toxic/Total", "setting": "6C3HED lymphosarcoma; 8 mg/kg, Days 1,3,5,7", "value": "0/10"}, {"measurement": "% INH (percent inhibition of tumor)", "setting": "6C3HED lymphosarcoma; 12.5 mg/kg, Dailyx8", "value": 100, "unit": "%"}, {"measurement": "Toxic/Total", "setting": "6C3HED lymphosarcoma; 12.5 mg/kg, Dailyx8", "value": "8/10"}, {"measurement": "% INH (percent inhibition of tumor)", "setting": "6C3HED lymphosarcoma; 16 mg/kg, Days 1,3,5,7", "value": 100, "unit": "%"}, {"measurement": "Toxic/Total", "setting": "6C3HED lymphosarcoma; 16 mg/kg, Days 1,3,5,7", "value": "0/10"}, {"measurement": "Toxic/Total", "setting": "6C3HED lymphosarcoma; 25 mg/kg, Dailyx8", "value": "10/10"}, {"measurement": "Toxic/Total", "setting": "6C3HED lymphosarcoma; 50 mg/kg, Dailyx8", "value": "10/10"}, {"measurement": "Toxic/Total", "setting": "[2]; 1 mg/kg", "value": "0/10"}, {"measurement": "% INH (percent inhibition of tumor)", "setting": "[2]; 2 mg/kg", "value": 10, "unit": "%"}, {"measurement": "Toxic/Total", "setting": "[2]; 2 mg/kg", "value": "0/10"}, {"measurement": "% INH (percent inhibition of tumor)", "setting": "[2]; 4 mg/kg", "value": 24, "unit": "%"}, {"measurement": "Toxic/Total", "setting": "[2]; 4 mg/kg", "value": "0/10"}, {"measurement": "% INH (percent inhibition of tumor)", "setting": "[2]; 16 mg/kg", "value": 92, "unit": "%"}, {"measurement": "% INH (percent inhibition of tumor)", "setting": "[2]; 32 mg/kg", "value": 95, "unit": "%"}]}
{"smiles": "COc1nc(N)nc2[nH]cc(CCc3ccc(C(=O)N[C@@H](CCC(=O)O)C(=O)O)cc3)c12", "note": "[Example 5, N-[2-amino-4-methoxy[[pyrrolo[2,3-d]-pyrimidin-5-yl]-ethyl]benzoyl]-L-glutamic acid]", "values": [{"measurement": "IC50", "setting": "CCRF-CEM cells; [3]", "value": "> 2", "unit": "µg/mL"}]}
{"smiles": "CCN(CC)c1nc(N)nc2[nH]cc(CCc3ccc(C(=O)N[C@@H](CCC(=O)O)C(=O)O)cc3)c12", "note": "[Example 6, N-[2-amino-4-diethylamino-[[pyrrolo[2,3-d]-pyrimidin-5-yl]-ethyl]benzoyl]-L-glutamic acid]", "values": [{"measurement": "IC50", "setting": "CCRF-CEM cells; [3]", "value": 0.9, "unit": "µg/mL"}]}
{"smiles": "Nc1ncc2c(n1)NCC(CCc1ccc(C(=O)N[C@@H](CCC(=O)O)C(=O)O)cc1)C2", "note": "(stereo partly drawn) [Example 7, N-[2-amino-[[tetrahydropyrido[2,3-d]-pyrimidin-6-yl]-ethyl]benzoyl]-L-glutamic acid]", "values": [{"measurement": "IC50", "setting": "CCRF-CEM cells; CCRF-CEM, 72 h", "value": 0.005, "unit": "µg/mL"}]}
{"smiles": "CN(Cc1cnc2nc(N)nc(N)c2n1)c1ccc(C(=O)N[C@@H](CCC(=O)O)C(=O)O)cc1", "note": "[amethopterin]", "values": [{"measurement": "inhibition of the second reduction, from dihydrofolic acid to tetrahydrofolic acid", "setting": "dihydrofolic reducatase", "value": "inhibit the second reduction"}]}
